Values of other authors as cited in US20190151294A1, “TREATMENT OF ALCOHOLISM AND DEPRESSION AND/OR DYSPHORIC MOOD USING IBUDILAST” (MEDICINOVA, INC., priority 2016, published 2019).

Tested on: P and HAD1 rats and mouse model of ethanol dependence
Conditions: in these models of elevated alcohol intake; cited from earlier work

Compound	selective reduction of ethanol drinking
CC[C@@H](C(N)=O)N1CCCC1=O [levatiracetam]	do not selectively reduce ethanol drinking
OCCOCCN1CCN(C2=Nc3ccccc3Sc3ccccc32)CC1 [quetiapine]	do not selectively reduce ethanol drinking
